Measurements taken from PubChem BioAssay (NCI).
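Values below derive from 48-hour exposures of cells grown in 96-well plates, with endpoints linearly interpolated between the two concentrations bracketing the appropriate inhibition level. Definition used: TGI = concentration required for complete inhibition of growth.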

Assays:
Experiment in all cases: NCI anticancer screen, dose series, 48 h
CCRF-CEM leukemia = tested on: CCRF-CEM leukemia
MALME-3M melanoma = tested on: MALME-3M melanoma
UACC-257 melanoma = tested on: UACC-257 melanoma
SW-620 colon = tested on: SW-620 colon
HL-60(TB) leukemia = tested on: HL-60(TB) leukemia
HCC-2998 colon = tested on: HCC-2998 colon
MCF7 breast = tested on: MCF7 breast
SF-268 CNS = tested on: SF-268 CNS
SN12C renal = tested on: SN12C renal
M14 melanoma = tested on: M14 melanoma
UACC-62 melanoma = tested on: UACC-62 melanoma
OVCAR-5 ovarian = tested on: OVCAR-5 ovarian
RXF 393 renal = tested on: RXF 393 renal
MDA-MB-435 = tested on: MDA-MB-435
BT-549 breast = tested on: BT-549 breast
SK-MEL-5 melanoma = tested on: SK-MEL-5 melanoma
HOP-62 NSCLC = tested on: HOP-62 NSCLC
RPMI-8226 leukemia = tested on: RPMI-8226 leukemia
NCI-H23 lung = tested on: NCI-H23 lung
MDA-N = tested on: MDA-N
OVCAR-8 ovarian = tested on: OVCAR-8 ovarian
CAKI-1 renal = tested on: CAKI-1 renal
HCT-15 colon = tested on: HCT-15 colon
SNB-19 CNS = tested on: SNB-19 CNS
SNB-75 CNS = tested on: SNB-75 CNS
OVCAR-4 ovarian = tested on: OVCAR-4 ovarian
TK-10 renal = tested on: TK-10 renal
HS 578T breast = tested on: HS 578T breast
MDA-MB-231 breast = tested on: MDA-MB-231 breast
LOX IMVI melanoma = tested on: LOX IMVI melanoma
SK-MEL-28 melanoma = tested on: SK-MEL-28 melanoma
HT29 colon = tested on: HT29 colon
EKVX NSCLC = tested on: EKVX NSCLC
KM12 colon = tested on: KM12 colon
IGROV1 ovarian = tested on: IGROV1 ovarian
SF-539 CNS = tested on: SF-539 CNS
786-0 renal = tested on: 786-0 renal
SF-295 CNS = tested on: SF-295 CNS
DU-145 prostate = tested on: DU-145 prostate
NCI/ADR-RES ovarian = tested on: NCI/ADR-RES ovarian
A549 NSCLC = tested on: A549 NSCLC
K-562 leukemia = tested on: K-562 leukemia
PC-3 prostate = tested on: PC-3 prostate
UO-31 renal = tested on: UO-31 renal
NCI-H226 lung = tested on: NCI-H226 lung
A498 renal = tested on: A498 renal
HOP-92 NSCLC = tested on: HOP-92 NSCLC
T-47D breast = tested on: T-47D breast
NCI-H460 lung = tested on: NCI-H460 lung
COLO 205 colon = tested on: COLO 205 colon
MOLT-4 leukemia = tested on: MOLT-4 leukemia
U251 CNS = tested on: U251 CNS
NCI-H522 lung = tested on: NCI-H522 lung
ACHN renal = tested on: ACHN renal
HCT-116 colon = tested on: HCT-116 colon
SK-OV-3 ovarian = tested on: SK-OV-3 ovarian
SK-MEL-2 melanoma = tested on: SK-MEL-2 melanoma
OVCAR-3 ovarian = tested on: OVCAR-3 ovarian
SR leukemia = tested on: SR leukemia

CN(C)c1ccc(/C=C(\NC(=O)c2ccccc2)C(=O)Nc2ccccc2C(=O)NCc2ccccc2)cc1
TGI (CCRF-CEM leukemia): > 100 µM | TGI (MALME-3M melanoma): > 100 µM | TGI (UACC-257 melanoma): > 100 µM | TGI (SW-620 colon): > 100 µM | TGI (HL-60(TB) leukemia): > 100 µM | TGI (HCC-2998 colon): > 100 µM | TGI (MCF7 breast): > 100 µM | TGI (SF-268 CNS): > 100 µM | TGI (SN12C renal): > 100 µM | TGI (M14 melanoma): > 100 µM | TGI (UACC-62 melanoma): > 100 µM | TGI (OVCAR-5 ovarian): > 100 µM | TGI (RXF 393 renal): > 100 µM | TGI (MDA-MB-435): > 100 µM | TGI (BT-549 breast): > 100 µM | TGI (SK-MEL-5 melanoma): > 100 µM | TGI (HOP-62 NSCLC): > 100 µM | TGI (RPMI-8226 leukemia): > 100 µM | TGI (NCI-H23 lung): > 100 µM | TGI (MDA-N): > 100 µM | TGI (OVCAR-8 ovarian): > 100 µM | TGI (CAKI-1 renal): > 100 µM | TGI (HCT-15 colon): > 100 µM | TGI (SNB-19 CNS): > 100 µM | TGI (SNB-75 CNS): > 100 µM | TGI (OVCAR-4 ovarian): > 100 µM | TGI (TK-10 renal): > 100 µM | TGI (HS 578T breast): > 100 µM | TGI (MDA-MB-231 breast): > 100 µM | TGI (LOX IMVI melanoma): > 100 µM | TGI (SK-MEL-28 melanoma): > 100 µM | TGI (HT29 colon): > 100 µM | TGI (EKVX NSCLC): > 100 µM | TGI (KM12 colon): > 100 µM | TGI (IGROV1 ovarian): > 100 µM | TGI (SF-539 CNS): > 100 µM | TGI (786-0 renal): > 100 µM | TGI (SF-295 CNS): > 100 µM | TGI (DU-145 prostate): > 100 µM | TGI (NCI/ADR-RES ovarian): > 100 µM | TGI (A549 NSCLC): > 100 µM | TGI (K-562 leukemia): > 100 µM | TGI (PC-3 prostate): > 100 µM | TGI (UO-31 renal): > 100 µM | TGI (NCI-H226 lung): > 100 µM | TGI (A498 renal): > 100 µM | TGI (HOP-92 NSCLC): > 100 µM | TGI (T-47D breast): > 100 µM | TGI (NCI-H460 lung): > 100 µM | TGI (COLO 205 colon): > 100 µM | TGI (MOLT-4 leukemia): > 100 µM | TGI (U251 CNS): > 100 µM | TGI (NCI-H522 lung): 93.3 µM | TGI (ACHN renal): > 100 µM | TGI (HCT-116 colon): > 100 µM | TGI (SK-OV-3 ovarian): > 100 µM | TGI (SK-MEL-2 melanoma): > 100 µM | TGI (OVCAR-3 ovarian): > 100 µM

COc1ccc2c(c1)N=C(N)n1c(nc3ccccc31)S2
TGI (MALME-3M melanoma): > 100 µM | TGI (UACC-257 melanoma): 38.1 µM | TGI (SW-620 colon): > 100 µM | TGI (SR leukemia): > 100 µM | TGI (HL-60(TB) leukemia): > 100 µM | TGI (HCC-2998 colon): > 100 µM | TGI (MCF7 breast): > 100 µM | TGI (SF-268 CNS): > 100 µM | TGI (SN12C renal): > 100 µM | TGI (M14 melanoma): 15.6 µM | TGI (UACC-62 melanoma): 76.7 µM | TGI (OVCAR-5 ovarian): 23.9 µM | TGI (RXF 393 renal): 70.5 µM | TGI (BT-549 breast): > 100 µM | TGI (SK-MEL-5 melanoma): 20.8 µM | TGI (HOP-62 NSCLC): > 100 µM | TGI (RPMI-8226 leukemia): > 100 µM | TGI (NCI-H23 lung): 26.2 µM | TGI (MDA-N): 16 µM | TGI (HCT-15 colon): > 100 µM | TGI (SNB-19 CNS): > 100 µM | TGI (SNB-75 CNS): > 100 µM | TGI (OVCAR-4 ovarian): 38.9 µM | TGI (TK-10 renal): > 100 µM | TGI (HS 578T breast): > 100 µM | TGI (MDA-MB-231 breast): 32.3 µM | TGI (LOX IMVI melanoma): > 100 µM | TGI (SK-MEL-28 melanoma): > 100 µM | TGI (HT29 colon): 15.9 µM | TGI (KM12 colon): 36.2 µM | TGI (IGROV1 ovarian): > 100 µM | TGI (SF-539 CNS): > 100 µM | TGI (786-0 renal): 4.39 µM | TGI (SF-295 CNS): > 100 µM | TGI (DU-145 prostate): > 100 µM | TGI (NCI/ADR-RES ovarian): 86.7 µM | TGI (A549 NSCLC): > 100 µM | TGI (K-562 leukemia): > 100 µM | TGI (PC-3 prostate): 69.1 µM | TGI (UO-31 renal): 38.4 µM | TGI (NCI-H226 lung): > 100 µM | TGI (A498 renal): 80.6 µM | TGI (HOP-92 NSCLC): 53.2 µM | TGI (T-47D breast): 76.7 µM | TGI (NCI-H460 lung): > 100 µM | TGI (COLO 205 colon): 26.1 µM | TGI (MOLT-4 leukemia): > 100 µM | TGI (U251 CNS): 29.4 µM | TGI (NCI-H522 lung): 25.9 µM | TGI (ACHN renal): > 100 µM | TGI (HCT-116 colon): 15.8 µM | TGI (SK-OV-3 ovarian): 95.4 µM | TGI (SK-MEL-2 melanoma): 28.1 µM | TGI (OVCAR-3 ovarian): 90.4 µM

O=C1C(Br)=C(C2=CC(=P(c3ccccc3)(c3ccccc3)c3ccccc3)C=C2)C(=O)C(Br)=C1C1=CC(=P(c2ccccc2)(c2ccccc2)c2ccccc2)C=C1
TGI (CCRF-CEM leukemia): > 100 µM | TGI (MALME-3M melanoma): 34.1 µM | TGI (UACC-257 melanoma): 95.1 µM | TGI (SW-620 colon): 35 µM | TGI (SR leukemia): > 100 µM | TGI (HL-60(TB) leukemia): > 100 µM | TGI (MCF7 breast): > 100 µM | TGI (SF-268 CNS): > 100 µM | TGI (SN12C renal): > 100 µM | TGI (M14 melanoma): 25.1 µM | TGI (UACC-62 melanoma): > 100 µM | TGI (OVCAR-5 ovarian): 31.7 µM | TGI (RXF 393 renal): > 100 µM | TGI (BT-549 breast): > 100 µM | TGI (SK-MEL-5 melanoma): > 100 µM | TGI (HOP-62 NSCLC): > 100 µM | TGI (RPMI-8226 leukemia): > 100 µM | TGI (NCI-H23 lung): > 100 µM | TGI (MDA-N): > 100 µM | TGI (OVCAR-8 ovarian): > 100 µM | TGI (CAKI-1 renal): > 100 µM | TGI (SNB-19 CNS): > 100 µM | TGI (SNB-75 CNS): > 100 µM | TGI (OVCAR-4 ovarian): > 100 µM | TGI (TK-10 renal): > 100 µM | TGI (HS 578T breast): > 100 µM | TGI (MDA-MB-231 breast): > 100 µM | TGI (LOX IMVI melanoma): > 100 µM | TGI (SK-MEL-28 melanoma): > 100 µM | TGI (HT29 colon): > 100 µM | TGI (EKVX NSCLC): 34 µM | TGI (KM12 colon): > 100 µM | TGI (IGROV1 ovarian): > 100 µM | TGI (SF-539 CNS): > 100 µM | TGI (786-0 renal): > 100 µM | TGI (SF-295 CNS): > 100 µM | TGI (DU-145 prostate): > 100 µM | TGI (NCI/ADR-RES ovarian): > 100 µM | TGI (A549 NSCLC): > 100 µM | TGI (K-562 leukemia): > 100 µM | TGI (PC-3 prostate): > 100 µM | TGI (UO-31 renal): > 100 µM | TGI (A498 renal): > 100 µM | TGI (HOP-92 NSCLC): 55.5 µM | TGI (T-47D breast): > 100 µM | TGI (COLO 205 colon): > 100 µM | TGI (MOLT-4 leukemia): > 100 µM | TGI (U251 CNS): 30.6 µM | TGI (NCI-H522 lung): 42.9 µM | TGI (ACHN renal): > 100 µM | TGI (HCT-116 colon): > 100 µM | TGI (SK-OV-3 ovarian): > 100 µM | TGI (SK-MEL-2 melanoma): > 100 µM | TGI (OVCAR-3 ovarian): > 100 µM
